pEC50: −log10 of the molar value. Like-named read-outs stand apart in the source and are kept apart here.
Tests used:
[1] = system: primary cultured guinea-pig urinary bladder (GPB) cells; test: Membrane hyperpolarization (MHP) assay, DiBAC(4)3 / FLIPR; assay type: cell-based; conditions: for pEC50: concentration that elicits 50% of the maximal response for the test sample
Procedure: Compounds were evaluated for potassium channel opening activity using primary cultured guinea-pig urinary bladder (GPB) cells.
For the preparation of urinary bladder smooth muscle cells, urinary bladders were removed from male guinea-pigs (Hartley, Charles River, Wilmington, Mass.) weighing 300-400 g and placed in ice-cold Ca^2+-free Krebs solution (Composition, mM: KCl, 2.7; KH2PO4, 1.5; NaCl, 75; Na2HPO4, 9.6; Na2HPO4.7H2O, 8; MgSO4, 2; glucose, 5; HEPES, 10; pH 7.4). Cells were isolated by enzymatic dissociation as previously described with minor modifications (Klockner, U. and Isenberg, G., Pflugers Arch. (1985), 405, 329-339), hereby incorporated by reference. The bladder was cut into small sections and incubated in 5 mL of the Kreb's solution containing I mg/mL collagenase (Sigma, St. Louis, Mo.) and 0.2 mg/mL pronase (Calbiochem, La Jolla, Calif.) with continuous stirring in a cell incubator for 30 minutes. The mixture was then centrifuged at 1300×g for 5 minutes, and the pellet resuspended in Dulbecco's PBS (GIBCO, Gaithersburg, Md.) and recentrifuged to remove residual enzyme. The cell pellet was resuspended in 5 mL growth media (composition: Dulbecco's modified Eagle's medium supplemented with 10% fetal bovine serum, 100 units/mL penicillin, 100 units/mL streptomycin and […] amphotericin B) and further dissociated by pipetting the suspension through a flame-polished Pasteur pipette and passing it through a polypropylene mesh membrane (Spectrum, Houston, Tex.). The cell density was adjusted to 100,000 cells/mL by resuspension in growth media. Cells were plated in clear-bottomed black 96-well plates (Packard) for membrane potential studies at a density of 20,000 cells/well and maintained in a cell incubator with 90% air: 10% CO2 until confluent. Cells were confirmed to be of smooth muscle type by cytoskeletal staining using a monoclonal mouse anti human-α-smooth muscle actin (Biomeda, Foster City, Calif.).
Functional activity at potassium channels was measured by evaluating changes in membrane potential using the bis-oxonol dye DiBAC(4) (Molecular Probes) in a 96-well cell-based kinetic assay system, Fluorescent Imaging Plate Reader (FLIPR) (K. S. Schroeder et al., J. Biomed. Screen., v. 1 pp. 75-81 (1996)), hereby incorporated by reference. DiBAC(4)3 is an anionic potentiometric probe which partitions between cells and extracellular solution in a membrane potential-dependent manner. With increasing membrane potential (for example, K^+ depolarization), the probe further partitions into the cell; this is measured as an increase in fluorescence due to dye interaction with intracellular lipids and proteins. Conversely, decreasing membrane potential (hyperpolarization by potassium channel openers) evokes a decrease in fluorescence.
Confluent guinea-pig urinary bladder cells cultured in black clear-bottomed 96-well plates were rinsed twice with […] assay buffer (composition, mM: HEPES, 20; NaCl, 120; KCl, 2; CaCl2, 2; MgCl2, 1; glucose, 5; pH 7.4 at 25° C.) containing 5 μM DiBAC(4)3 and incubated with […] of the buffer in a cell incubator for 30 minutes at 37° C. to ensure dye distribution across the membrane. After recording the baseline fluorescence for 5 minutes, the reference or test compounds, prepared at 10 times the concentration in the assay buffer, were added directly to the wells. Changes in fluorescence were monitored for an additional 25 minutes. Hyperpolarization responses were corrected for any background noise and were normalized to the response observed with 10 μM of the reference compound P1075 (assigned as 100%), a potent opener of smooth muscle KATP channels (Quast et al., Mol. Pharmacol., v. 43 pp. 474-481 (1993)), hereby incorporated by reference.
Routinely, five concentrations of P1075 or test compounds (log or half-log dilutions) were evaluated and the maximal steady-state hyperpolarization values (expressed as % relative to P1075) plotted as a function of concentration. […]

[2] = system: tissue strips obtained from Landrace pig bladders; test: Functional potassium channel opening activity in isolated bladder strips (field-stimulated twitch); conditions: for Index: ED50 for P1075 divided by ED50 for the test agonist in a given tissue, averaged; for pEC50: amount of agent necessary to cause 50% of the agent's maximal response, read-out: ED50 (the source's name)
Procedure: Compounds were evaluated for functional potassium channel opening activity using tissue strips obtained from Landrace pig bladders.
Landrace pig bladders were obtained from female Landrace pigs of 9-30 kg. Landrace pigs were euthanized with an intraperitoneal injection of pentobarbital solution, Somlethal®, J. A. Webster Inc., Sterling, Mass. The entire bladder was removed and immediately placed into Krebs Ringer bicarbonate solution (composition, mM: NaCl, 120; NaHCO3, 20; dextrose, 11; KCl, 4.7; CaCl2, 2.5; MgSO4, 1.5; KH2PO4, 1.2; K2EDTA, 0.01, equilibrated with 5% CO2/95% O2pH 7.4 at 37° C.). Propranolol (0.004 mM) was included in all of the assays to block β-adrenoceptors. The trigonal and dome portions were discarded. Strips 3-5 mm wide and 20 mm long were prepared from the remaining tissue cut in a circular fashion. The mucosal layer was removed. One end was fixed to a stationary glass rod and the other to a Grass FT03 transducer at a basal preload of 1.0 gram. Two parallel platinum electrodes were included in the stationary glass rod to provide field stimulation of 0.05 Hz, 0.5 milli-seconds at 20 volts. This low frequency stimulation produced a stable twitch response of 100-500 centigrams. Tissues were allowed to equilibrate for at least 60 minutes and primed with 80 mM KCl. A control concentration response curve (cumulative) was generated for each tissue using the potassium channel opener P1075 as the control agonist. […] After a 60 minute rinsing period, a concentration response curve (cumulative) was generated for the test agonist in the same fashion as that used for the control agonist P1075. The maximal efficacy of each compound (expressed as % relative to P1075) is reported. The amount of agent necessary to cause 50% of the agent's maximal response (ED50) was calculated using “ALLFIT” (DeLean et al., Am. J. Physiol., 235, E97 (1980)), hereby incorporated by reference. Agonist potencies were also expressed as an index relative to P1075. The index was calculated by dividing the ED50 for P1075 by the ED50 for the test agonist in a given tissue. Each tissue was used for only one test agonist, and the indices obtained from each tissue were averaged to provide an average index of potency.

[3] = Cavia porcellus, maximal steady-state hyperpolarization, normalized to response with 10 μM P1075 (100%)
[4] = Sus scrofa, maximal efficacy relative to P1075, field stimulation 0.05 Hz, 0.5 ms, 20 volts

Row | pEC50 [1] | pEC50 [2] | pEC50 ([2]; Sus scrofa) | pEC50 ([1]; Cavia porcellus) | SMILES | Maximal Response (% P1075) ([1]; maximal steady-state hyperpolarization, normalized to response with 10 μM P1075 (100%)) | Index [2] | Efficacy (% P1075) ([2]; maximal efficacy relative to P1075, field stimulation 0.05 Hz, 0.5 ms, 20 volts) | Emax [1, 3] [%] | Emax [2, 4] [%]
1 | 7.00 | 5.47 | – | – | CC1=C(CC(NC(=O)c2ccc(Cl)cc2)NC(=NC#N)Nc2cccnc2)C(C)(C)CCC1 (single isomer, unassigned; (-)) [Example 89, (−) 4-chloro-N-[1-{[(cyanoimino)(3-pyridinylamino)methyl]amino}-2-(2,6,6-trimethyl-1-cyclohexen-1-yl)ethyl]benzamide] | 88 | 0.120 | 41 | – | –
2 | – | – | 5.05 | 7.15 | Cc1ccc(C(=O)NC(NC(=S)Nc2cccnc2)C(F)(F)F)cc1 (stereo not drawn) [Example 1, 4-methyl-N-(2,2,2-trifluoro-1-{[(3-pyridinylamino)carbothioyl]amino}ethyl)benzamide] | – | 0.009 | – | 116 | 100
3 | – | – | 5.05 | 6.05 | Cc1ccc(C(=O)NC(NC(=S)Nc2ccc(F)cc2)C(F)(F)F)cc1 (stereo not drawn) [Example 3, 4-methyl-N-(2,2,2-trifluoro-1-{[(4-fluoroanilino)carbothioyl]amino}ethyl)benzamide] | – | 0.012 | – | 79 | 97
4 | – | – | 4.77 | 7.10 | Cc1ccc(C(=O)NC(NC(=S)Nc2ccccc2)C(F)(F)F)cc1 (stereo not drawn) [Example 9, N-{1-[(anilinocarbothioyl)amino]-2,2,2-trifluoroethyl}-4-methylbenzamide] | – | 0.011 | – | 104 | 91
5 | – | – | 5.00 | 6.46 | Cc1ccc(C(=O)NC(NC(=S)Nc2cccc(F)c2)C(F)(F)F)cc1 (stereo not drawn) [Example 13, 4-methyl-N-(2,2,2-trifluoro-1-{[(3-fluoroanilino)carbothioyl]amino}ethyl)benzamide] | – | 0.022 | – | 91 | 95
6 | – | – | 4.85 | 6.52 | Cc1ccc(C(=O)NC(NC(=S)Nc2cc(F)ccc2F)C(F)(F)F)cc1 (stereo not drawn) [Example 14, N-(1-{[(2,5-difluoroanilino)carbothioyl]amino}-2,2,2-trifluoroethyl)-4-methylbenzamide] | – | 0.027 | – | 110 | 96
7 | – | – | 4.92 | 7.05 | Cc1ccc(C(=O)NC(NC(=S)Nc2c(F)cccc2F)C(F)(F)F)cc1 (stereo not drawn) [Example 17, N-(1-{[(2,6-difluoroanilino)carbothioyl]amino}-2,2,2-trifluoroethyl)-4-methylbenzamide] | – | 0.006 | – | 109 | 100
8 | – | – | 5.30 | 6.66 | Cc1ccc(C(=O)NC(NC(=S)Nc2cccnc2)C(C)(C)C)cc1 (stereo not drawn) [Example 22, N-(2,2-dimethyl-1-{[(3-pyridinylamino)carbothioyl]amino}propyl)-4-methylbenzamide] | – | 0.017 | – | 100 | 100

Further lines, the molecule ahead of its results:

Row | SMILES | pEC50 [1] | pEC50 [2] | pEC50 ([2]; Sus scrofa) | pEC50 ([1]; Cavia porcellus) | Maximal Response (% P1075) ([1]; maximal steady-state hyperpolarization, normalized to response with 10 μM P1075 (100%)) | Index [2] | Efficacy (% P1075) ([2]; maximal efficacy relative to P1075, field stimulation 0.05 Hz, 0.5 ms, 20 volts) | Emax [1, 3] [%] | Emax [2, 4] [%]
9 | C=CCC(C)(C)C(NC(=O)c1ccc(Cl)cc1)NC(=NC#N)Nc1cccnc1 (single isomer, unassigned; (-)) [Example 90, (−) 4-chloro-N-(1-{[(cyanoimino)(3-pyridinylamino)methyl]amino}-2,2-dimethyl-4-pentenyl)benzamide] | 6.77 | – | 6.38 | – | – | 0.420 | – | 55 | 44
10 | Cc1ccc(C(=O)NC(NC(=S)Nc2cccc([N+](=O)[O-])c2)C(F)(F)F)cc1 (stereo not drawn) [Example 4, 4-methyl-N-(2,2,2-trifluoro-1-{[(3-nitroanilino)carbothioyl]amino}ethyl)benzamide] | – | – | 4.74 | 6.52 | – | 0.015 | – | 133 | 89
11 | Cc1ccc(C(=O)NC(NC(=S)Nc2ccccc2F)C(F)(F)F)cc1 (stereo not drawn) [Example 11, 4-methyl-N-(2,2,2-trifluoro-1-{[(2-fluoroanilino)carbothioyl]amino}ethyl)benzamide] | – | – | 4.72 | 6.29 | – | 0.011 | – | 109 | 100
12 | Cc1ccc(C(=O)NC(NC(=S)Nc2ccc(F)cc2F)C(F)(F)F)cc1 (stereo not drawn) [Example 15, N-(1-{[(2,4-difluoroanilino)carbothioyl]amino}-2,2,2-trifluoroethyl)-4-methylbenzamide] | – | – | 4.55 | 6.26 | – | 0.005 | – | 70 | 97
13 | Cc1ccc(C(=O)NC(NC(=S)Nc2cccc(F)c2F)C(F)(F)F)cc1 (stereo not drawn) [Example 18, N-(1-{[(2,3-difluoroanilino)carbothioyl]amino}-2,2,2-trifluoroethyl)-4-methylbenzamide] | – | – | 5.10 | 7.05 | – | 0.020 | – | 123 | 97
14 | O=C(NC(NC(=S)Nc1ccccc1)C(F)(F)F)c1ccc(Cl)cc1 (stereo not drawn) [Example 20, N-{1-[(anilinocarbothioyl)amino]-2,2,2-trifluoroethyl}-4-chlorobenzamide] | – | – | 4.55 | 7.05 | – | 0.011 | – | 85 | 84
15 | O=C(NC(NC(=S)Nc1ccccc1F)C(F)(F)F)c1ccc(Cl)cc1 (stereo not drawn) [Example 21, 4-chloro-N-(2,2,2-trifluoro-1-{[(2-fluoroanilino)carbothioyl]amino}ethyl)benzamide] | – | – | 4.68 | 7.05 | – | 0.014 | – | 96 | 86
